The conditions of data set [1]: in vivo; cited from earlier work.
For data set [2], the system named is healthy Chinese male volunteers. Briefly: Pharmacodynamics (glucose infusion rate) in 24-h euglycemic clamp. The format is in vivo. The note with it: 0.4 IU/kg s.c. single dose, mean ± SD. The method, then: The volunteers were screened and qualified for the entry standard. […] During the trial, volunteers were requested to avoid strenuous exercises, smoking, drinking alcohol, or caffeinated drinks (e.g., tea and coffee). […] C-peptide reduction rate <30%; group B: […] The trial was carried out in accordance with the principles of the Declaration of Helsinki. This study was approved by the Ethics Committee of the First Affiliated Hospital of ChongQing Medical University (No. 20190101). All recruited volunteers underwent a single-dose euglycemic clamp test. Participants arrived at the ward on the day prior to the clamp test to ensure a 10-h fasting condition and to maintain fasting during euglycemic clamping. […] Intravenous access was obtained in one arm for a 20% glucose infusion and in the other for blood drawing. The arm for blood drawing was heated using a warming blanket to arterialize venous blood (55-65°C). […] Basal glucose (BG) was defined as the average blood glucose level before injection; the target glucose (TG) level was defined as the BG minus 0.28 mmol/[…] al., 2015b]); and we controlled the blood glucose concentration as close as possible to the TG level. The glucose infusion rate (GIR) was manually adjusted by investigators to maintain blood glucose at the target value. […] SPSS 22.0 and WinNonlin 8.1 were used for statistical analysis. […] The oscillation of glucose was calculated with formula 1-Gt (glucose at time t)/Gd (desired glucose). […] The pharmacodynamic parameters were area under the glucose infusion rate versus time curve (AUCGIR0-24 h), peak of glucose infusion rate (GIRmax), and time to […]).

Setting [3] is: group A (C-peptide reduction <30%, n = 13).
Where [4] appears, read: group B (C-peptide reduction ≥30% and <50%, n = 15).
[5] abbreviates: group C (C-peptide reduction ≥50%, n = 11).

Usually half-life stands for the time in which the quantity being followed falls by half. Consider C-peptide, for which the half-life in data set [1] is 20 to 30 min.

With insulin glargine, in data set [2] (setting [3]), the “AUCGIR0–24 h” value is given as 3175.9 ± 1135.2 mg/kg, the GIRmax stood at 3.5 ± 1.3 mg/kg/min and the TGIRmax worked out at 593.1 ± 198.1 min. In addition, in data set [2] (setting [4]), the “AUCGIR0–24 h” value is 2862.9 ± 1176.0 mg/kg, the GIRmax came out at 3.4 ± 1.4 mg/kg/min and the TGIRmax is recorded as 584.0 ± 199.1 min. In data set [2] (setting [5]), the “AUCGIR0–24 h” value came to 2526.1 ± 1222.0 mg/kg, the GIRmax is listed as 3.0 ± 1.5 mg/kg/min and the TGIRmax turned out to be 756.4 ± 228.0 min.

The values are drawn from paper PMC8675232 (Frontiers in Pharmacology, 2021).
